Holding throughout (type): functional, cell-based
For assay [1], the system named is A549. In words: (§1) Antiproliferative activity against human A549 cells assessed as inhibition of cell proliferation incubated for 72 hrs by conventional ATP quantification method. Particulars: A549, 72 h.
Assay [2] in a line: Antiproliferative activity against human NAMALWA cells assessed as inhibition of cell proliferation incubated for 72 hrs by conventional ATP quantification method. The settings on record: NAMALVA.
The nature of assay [3]: Antiproliferative activity against human WM266.4 cells assessed as inhibition of cell proliferation incubated for 72 hrs by conventional ATP quantification method. The settings on record: WM 266-4, 72 h.
In assay [4] the test system is HCT-116. In words: Antiproliferative activity against human HCT116 cells assessed as inhibition of cell proliferation incubated for 72 hrs by conventional ATP quantification method. Particulars: HCT-116, 72 h.
Assay [5] concerns A-375. In words: Antiproliferative activity against human A375 cells assessed as inhibition of cell proliferation incubated for 72 hrs by conventional ATP quantification method. The settings on record: A-375, 72 h.
For assay [6], the system named is MDA-MB-231. In words: Cytotoxicity against human MDA-MB-231 cells incubated for 72 hrs under hypoxic conditions by MTS assay.
The test system of assay [7] is TK-10. In words: Antiproliferative activity against human TK10 cells assessed as inhibition of cell proliferation incubated for 72 hrs by conventional ATP quantification method. Particulars: TK-10, 72 h.
Assay [8] has as its system T47D. In words: Antiproliferative activity against human T47D cells assessed as inhibition of cell proliferation incubated for 72 hrs by conventional ATP quantification method.
Assay [9] has as its system HOP-62. In words: Antiproliferative activity against human HOP62 cells assessed as inhibition of cell proliferation incubated for 72 hrs by conventional ATP quantification method. Particulars: HOP-62, 72 h.
Assay [10] concerns DU-145. In words: Antiproliferative activity against human DU145 cells assessed as inhibition of cell proliferation incubated for 72 hrs by conventional ATP quantification method. The settings on record: DU-145, 72 h.
In assay [11] the test system is A549. The description is as §1. Particulars: A549, 72 h. This is another data set of the same source.
Assay [12] concerns OVCAR-3. In words: Antiproliferative activity against human OVCAR3 cells assessed as inhibition of cell proliferation incubated for 72 hrs by conventional ATP quantification method. Particulars: OVCAR-3, 72 h.
Assay [13] relates to NCI-H460. Briefly: Antiproliferative activity against human NCI-H460 cells assessed as inhibition of cell proliferation incubated for 72 hrs by conventional ATP quantification method. Particulars: NCI-H460, 72 h.
The test system of assay [14] is SK-OV-3. In words: Antiproliferative activity against human SKOV3 cells assessed as inhibition of cell proliferation incubated for 72 hrs by conventional ATP quantification method. Particulars: SK-OV-3, 72 h.
Assay [15] deals with KM12. In words: Antiproliferative activity against human KM12 cells assessed as inhibition of cell proliferation incubated for 72 hrs by conventional ATP quantification method. The settings on record: KM12, 72 h.
Assay [16] deals with HT-29. Briefly: Cytotoxicity against human HT-29 cells incubated for 72 hrs under hypoxic conditions by MTS assay. A general note: Tetrazolium assays rely on reduction of a dye to a coloured formazan, in cell work by metabolically active cells.

Active and inactive are the calls of the source. The rule behind the calls is not given here.

In the case of `C=C(C(=O)O)C1OC(=O)[C@H]2[C@H]1[C@@H](C(C)C)CC[C@@]2(O)CI` (some centres undefined), the half-inhibitory concentration (IC50) in assay [1], in assay [2], in [3], in assay [4] and in assay [5] was greater than 10000 nM in each case.
Consider `CC(C)[C@H]1CC[C@@]2(CO2)[C@H]2C(=O)OCC(C(=O)OCc3ccc(-c4ccccc4)o3)=C[C@H]12`, for which the IC50 (usually the concentration needed to halve the response being measured) in assay [1] was 350 nM; in [2], 370 nM; in assay [3] it was 960 nM; in [4], 220 nM; in [5] it was 1310 nM.
On to `CNC(=O)C1=C[C@@H]2[C@@H](C(C)C)CC[C@@]3(CO3)[C@H]2C(=O)OC1`, for which the IC50 in assay [1] worked out at 5540 nM; in [2], 1280 nM; in assay [3], 5900 nM; in [4] it was 7100 nM; in assay [5] it was 4150 nM.
On to `COc1cccc2c1C(=O)c1c(O)c3c(c(O)c1C2=O)C[C@@](O)(C(=O)CO)C[C@@H]3O[C@H]1C[C@H](N)[C@H](O)[C@H](C)O1` [DOXORUBICIN], for which the concentration for half-maximal inhibition (IC50) in assay [1] came to 30 nM; in [7], 20 nM; in [8], 20 nM; in [9] it was 20 nM; in [10] it was 20 nM; in assay [3], 150 nM. The IC50 in assay [11] was 20 nM; in [5], 10 nM; in assay [12], 20 nM; in [13], 20 nM; in [14] it was 20 nM; in assay [15] it was 20 nM. The result in assay [6] and in assay [16] was inactive.
For the compound `COC(=O)C1=C[C@@H]2[C@@H](C(C)C)CC[C@@]3(CO3)[C@H]2C(=O)OC1`, the 50% inhibitory concentration (IC50) is 450 nM in assay [1]; 1740 nM in [2]; 4100 nM in [3]; 2190 nM in assay [4]; 4090 nM in assay [5].
In the case of `CNC(=O)C1=C[C@@H]2[C@@H](C(C)C)CC[C@@](O)(CO)[C@H]2C(=O)OC1`, the half-inhibitory concentration (IC50) in assay [1], in [2], in assay [3], in [4] and in assay [5] was greater than 32000 nM in each case.

Values taken from ChEMBL document CHEMBL3585330, “Anticancer activity of koningic acid and semisynthetic derivatives” (Bioorg Med Chem, 2015).
